Results reported in patent US9763445B2, “Safened herbicidal compositions comprising a pyridine carboxylic acid herbicide” (Dow AgroSciences, LLC, priority 2014, dated 2017).

Columns and labels:
pigweed (AMARE) = assay: Postemergence greenhouse trial, % visual injury on pigweed; type: in vivo, Amaranthus retroflexus; conditions: AMARE; for % visual injury, Ob: CQC-m 0 g/ha
Procedure: (§1) Seeds of the desired test plant species were planted in Sun Gro MetroMix® 306 planting mixture, which typically has a pH of 6.0 to 6.8 and an organic matter content of about 30 percent, in plastic pots with a surface area of 103.2 square centimeters (cm^2). When required to ensure good germination and healthy plants, a fungicide treatment and/or other chemical or physical treatment was applied. The plants were grown for 7-36 days (d) in a greenhouse with an approximate 14-hour (h) photoperiod which was maintained at about 23° C. during the day and 22° C. during the night. Nutrients and water were added on a regular basis and supplemental lighting was provided with overhead metal halide 1000-Watt lamps as necessary. The plants were employed for testing when they reached the second or third true leaf stage.
(§2) Weighed amounts of technical material were dissolved in a volume of 97:3 volume per volume (v/v) acetone/dimethyl sulfoxide (DMSO) to stock solutions. […] The concentrated stock solutions were diluted with an aqueous mixture of 1.5% v/v of Agri-dex crop oil concentrate to provide the appropriate application rates. Compound requirements are based upon a 12 milliliter (mL) application volume at a rate of 187 liters per hectare (L/ha). Stocks solutions of the safeners were prepared following the same procedure. Spray solutions of the safeners and experimental compound mixtures were prepared by adding the stock solutions to the appropriate amount of dilution solution to form a 12 mL spray solution in two-way combinations. Formulated compounds were applied to the plant material with an overhead Mandel track sprayer equipped with 8002E nozzles calibrated to deliver 187 L/ha over an application area of 0.503 square meters (m^2) at a spray height of 18 inches (43 centimeters (cm)) above average plant canopy. Control plants were sprayed in the same manner with the solvent blank. All herbicide application (component a) rates are in g ae/ha and all safener (component b) rates are in g ai/ha.
(§3) The treated plants and control plants were placed in a greenhouse as described above and watered by sub-irrigation to prevent wash-off of the test compounds. After 20-22 d, the condition of the test plants as compared with that of the control plants was determined visually and scored on a scale of 0 to 100 percent where 0 corresponds to no injury and 100 corresponds to complete kill. The condition of the test plants was compared with that of the control plants as determined visually and scored on a scale of 0 to 100 percent, where 0 corresponds to no injury and 100 corresponds to complete kill. Colby's equation was used to determine the herbicidal effects expected from the mixtures.
(§4) The safener cloquintocet-mexyl was combined with compound 1, compound 2, compound 4, compound 5, and compound 6, and applied to corn/maize (ZEAMX) and spring wheat (TRZAS) and the phytotoxicity of the herbicidal compositions was measured. In addition, the efficacy of the herbicidal composition on velvetleaf (ABUTH, Abutilon theophrasti), pigweed (AMARE, Amaranthus retroflexus), winter rape (BRSNW, Brassica napus), lambsquarters (CHEAL, Chenopodium album), thistle (CIRAR, Cirsium arvense), nutsedge (CYPES, Cyperus esculentus), poinsettia (EPHHL, Euphorbia heterophylla), wild buckwheat (POLCO, Polygonum convolvulus), giant foxtail (SETFA, Setaria faberi), and chickweed (STEME, Stellaria media) was evaluated. […]
The safener cloquintocet-acid and a number of agriculturally acceptable esters and salts (-mexyl, -dimethylammonium salt and -triethylammonium salt) were combined in varying ratios with compound 1 and applied to spring wheat (TRZAS), winter wheat (TRZAW), and spring barley (HORVS), and the phytotoxicity of the herbicidal compositions was measured. […]

winter rape (BRSNW) = assay: Postemergence greenhouse trial, % visual injury on winter rape; type: in vivo, Brassica napus; conditions: Brassica napus, post-emergence, BRSNW, applied alone, read-out: % visual injury, Ob
Procedure: as §1, §2, §3, §4

kochia (KCHSC) = assay: Postemergence greenhouse trial, % visual injury on kochia; type: in vivo, Kochia scoparia; conditions: Bassia scoparia, post-emergence, KCHSC, applied alone, read-out: % visual injury, Ob
Procedure: as §1, §2
as §3, with “mixtures. […]” for “mixtures.”

common poppy (PAPRH) = assay: Postemergence greenhouse trial, % visual injury on common poppy; type: in vivo, Papaver rhoeas; conditions: Papaver rhoeas, post-emergence, PAPRH, applied alone, read-out: % visual injury, Ob
Procedure: as §1, §2
as §3, with “mixtures. […]” for “mixtures.”

wild mustard (SINAR) = assay: Postemergence greenhouse trial, % visual injury on wild mustard; type: in vivo, Sinapis arvensis; conditions: Brassica, post-emergence, SINAR, applied alone, read-out: % visual injury, Ob
Procedure: as §1, §2
as §3, with “mixtures. […]” for “mixtures.”

wild pansy (VIOTR) = assay: Postemergence greenhouse trial, % visual injury on wild pansy; type: in vivo, Viola tricolor; conditions: VIOTR, applied alone
Procedure: as §1, §2
as §3, with “mixtures. […]” for “mixtures.”

spring wheat (TRZAS) = assay: Postemergence greenhouse trial, % visual injury on spring wheat; type: in vivo, Triticum aestivum; conditions: TRZAS, CQC-m 0 g/ha
Procedure: as §1, §2, §3
The safener cloquintocet-mexyl was combined with compound 1, compound 2, compound 4, compound 5, and compound 6, and applied to corn/maize (ZEAMX) and spring wheat (TRZAS) and the phytotoxicity of the herbicidal compositions was measured. In addition, the efficacy of the herbicidal composition on velvetleaf (ABUTH, Abutilon theophrasti), pigweed (AMARE, Amaranthus retroflexus), winter rape (BRSNW, Brassica napus), lambsquarters (CHEAL, Chenopodium album), thistle (CIRAR, Cirsium arvense), nutsedge (CYPES, Cyperus esculentus), poinsettia (EPHHL, Euphorbia heterophylla), wild buckwheat (POLCO, Polygonum convolvulus), giant foxtail (SETFA, Setaria faberi), and chickweed (STEME, Stellaria media) was evaluated.
(§5) The safener cloquintocet-mexyl was combined with compound 1, compound 2, compound 3, compound 7, compound 8, compound 9, compound 10, compound 11, compound 12, compound 13, compound 14, compound 15, compound 16, compound 17, compound 18, compound 19, and compound 20, and applied to spring wheat (TRZAS), winter wheat (TRZAW), and spring barley (HORVS) and the phytotoxicity of the herbicidal compositions was measured. […]

spring barley (HORVS) = assay: Postemergence greenhouse trial, % visual injury on spring barley; type: in vivo, Hordeum vulgare; conditions: HORVS, CQC-m 0 g/ha
Procedure: as §1, §2, §3, §5

cleavers (GALAP) = assay: Postemergence greenhouse trial, % visual injury on cleavers; type: in vivo, Galium aparine; conditions: CQC-m 0 g/ha
Procedure: as §1, §2, §3, §5

Russian thistle (SASKR) = assay: Postemergence greenhouse trial, % visual injury on Russian thistle; type: in vivo, Salsola kali; conditions: SASKR, CQC-m 0 g/ha

**Q.** For `Nc1c(F)c(-c2ccc3cc[nH]c3c2)nc(C(=O)O)c1Cl` [compound 16], which pest or weed control at 4.375 g/ha (pigweed (AMARE); Amaranthus retroflexus, post-emergence, 4.375 g/ha, applied alone, read-out: % visual injury, Ob) is on record?
**A.** 70%

**Q.** And the pest or weed control at 8.75 g/ha (pigweed (AMARE); Amaranthus retroflexus, post-emergence, 8.75 g/ha, applied alone, read-out: % visual injury, Ob)?
**A.** 80%

**Q.** And the pest or weed control at 17.5 g/ha (pigweed (AMARE); Amaranthus retroflexus, post-emergence, 17.5 g/ha, applied alone, read-out: % visual injury, Ob)?
**A.** 85%

**Q.** What about the pest or weed control at 35 g/ha (pigweed (AMARE); Amaranthus retroflexus, post-emergence, 35 g/ha, applied alone, read-out: % visual injury, Ob) of the same compound?
**A.** 100%

**Q.** And the pest or weed control at 70 g/ha (pigweed (AMARE); Amaranthus retroflexus, post-emergence, 70 g/ha, applied alone, read-out: % visual injury, Ob)?
**A.** 100%

**Q.** What about the plant injury at 4.375 g/ha (winter rape (BRSNW); 4.375 g/ha) of the same compound?
**A.** 30%

**Q.** What about the plant injury at 8.75 g/ha (winter rape (BRSNW); 8.75 g/ha) of the same compound?
**A.** 40%

**Q.** And the plant injury at 17.5 g/ha (winter rape (BRSNW); 17.5 g/ha)?
**A.** 65%

**Q.** And the plant injury at 35 g/ha (winter rape (BRSNW); 35 g/ha)?
**A.** 70%

**Q.** What about the plant injury at 70 g/ha (winter rape (BRSNW); 70 g/ha) of the same compound?
**A.** 90%

**Q.** What about the pest or weed control at 4.375 g/ha (kochia (KCHSC); 4.375 g/ha) of the same compound?
**A.** 60%

**Q.** And the pest or weed control at 8.75 g/ha (kochia (KCHSC); 8.75 g/ha)?
**A.** 70%

**Q.** And the pest or weed control at 17.5 g/ha (kochia (KCHSC); 17.5 g/ha)?
**A.** 85%

**Q.** And the pest or weed control at 35 g/ha (kochia (KCHSC); 35 g/ha)?
**A.** 90%

**Q.** And the pest or weed control at 70 g/ha (kochia (KCHSC); 70 g/ha)?
**A.** 90%

**Q.** What about the pest or weed control at 4.375 g/ha (common poppy (PAPRH); 4.375 g/ha) of the same compound?
**A.** 70%

**Q.** What about the pest or weed control at 8.75 g/ha (common poppy (PAPRH); 8.75 g/ha) of the same compound?
**A.** 70%

**Q.** And the pest or weed control at 17.5 g/ha (common poppy (PAPRH); 17.5 g/ha)?
**A.** 100%

**Q.** What about the pest or weed control at 35 g/ha (common poppy (PAPRH); 35 g/ha) of the same compound?
**A.** 100%

**Q.** And the pest or weed control at 70 g/ha (common poppy (PAPRH); 70 g/ha)?
**A.** 100%

**Q.** And the pest or weed control at 4.375 g/ha (wild mustard (SINAR); 4.375 g/ha)?
**A.** 90%

**Q.** What about the pest or weed control at 8.75 g/ha (wild mustard (SINAR); 8.75 g/ha) of the same compound?
**A.** 93%

**Q.** And the pest or weed control at 17.5 g/ha (wild mustard (SINAR); 17.5 g/ha)?
**A.** 95%

**Q.** What about the pest or weed control at 35 g/ha (wild mustard (SINAR); 35 g/ha) of the same compound?
**A.** 100%

**Q.** And the pest or weed control at 70 g/ha (wild mustard (SINAR); 70 g/ha)?
**A.** 100%

**Q.** And the “% visual injury, Ob” value (wild pansy (VIOTR); 4.375 g/ha)?
**A.** 10%

**Q.** And the “% visual injury, Ob” value (wild pansy (VIOTR); 8.75 g/ha)?
**A.** 10%

**Q.** What about the “% visual injury, Ob” value (wild pansy (VIOTR); 17.5 g/ha) of the same compound?
**A.** 20%

**Q.** And the “% visual injury, Ob” value (wild pansy (VIOTR); 35 g/ha)?
**A.** 30%

**Q.** And the “% visual injury, Ob” value (wild pansy (VIOTR); 70 g/ha)?
**A.** 40%

**Q.** Which “% visual injury, Ob” value (spring wheat (TRZAS); compound 4.380 g/ha) does the source give for `C=Cc1c(C(=O)OC)nc(-c2ccc3cc[nH]c3c2F)c(F)c1N` [compound 14] here?
**A.** 0%

**Q.** And the “% visual injury, Ob” value (spring wheat (TRZAS); compound 8.75 g/ha)?
**A.** 0%

**Q.** And the “% visual injury, Ob” value (spring wheat (TRZAS); compound 17.5 g/ha)?
**A.** 0%

**Q.** What about the “% visual injury, Ob” value (spring wheat (TRZAS); compound 35 g/ha) of the same compound?
**A.** 10%

**Q.** What about the “% visual injury, Ob” value (spring wheat (TRZAS); compound 70 g/ha) of the same compound?
**A.** 30%

**Q.** What about the “% visual injury, Ob” value (spring barley (HORVS); compound 4.380 g/ha) of the same compound?
**A.** 0%

**Q.** What about the “% visual injury, Ob” value (spring barley (HORVS); compound 8.75 g/ha) of the same compound?
**A.** 0%

**Q.** And the “% visual injury, Ob” value (spring barley (HORVS); compound 17.5 g/ha)?
**A.** 10%

**Q.** What about the “% visual injury, Ob” value (spring barley (HORVS); compound 35 g/ha) of the same compound?
**A.** 20%

**Q.** What about the “% visual injury, Ob” value (spring barley (HORVS); compound 70 g/ha) of the same compound?
**A.** 40%

**Q.** And the “% visual injury, Ob” value (pigweed (AMARE); compound 4.380 g/ha)?
**A.** 10%

**Q.** And the “% visual injury, Ob” value (pigweed (AMARE); compound 8.75 g/ha)?
**A.** 10%

**Q.** What about the “% visual injury, Ob” value (pigweed (AMARE); compound 17.5 g/ha) of the same compound?
**A.** 20%

**Q.** And the “% visual injury, Ob” value (cleavers (GALAP); compound 4.380 g/ha)?
**A.** 10%

**Q.** What about the “% visual injury, Ob” value (cleavers (GALAP); compound 8.75 g/ha) of the same compound?
**A.** 10%

**Q.** And the “% visual injury, Ob” value (cleavers (GALAP); compound 17.5 g/ha)?
**A.** 20%

**Q.** What about the “% visual injury, Ob” value (cleavers (GALAP); compound 35 g/ha) of the same compound?
**A.** 30%

**Q.** And the “% visual injury, Ob” value (cleavers (GALAP); compound 70 g/ha)?
**A.** 60%

**Q.** And the “% visual injury, Ob” value (Russian thistle (SASKR); compound 4.380 g/ha)?
**A.** 0%

**Q.** What about the “% visual injury, Ob” value (Russian thistle (SASKR); compound 8.75 g/ha) of the same compound?
**A.** 10%

**Q.** What about the “% visual injury, Ob” value (Russian thistle (SASKR); compound 17.5 g/ha) of the same compound?
**A.** 50%

**Q.** And the “% visual injury, Ob” value (Russian thistle (SASKR); compound 35 g/ha)?
**A.** 60%

**Q.** What about the “% visual injury, Ob” value (Russian thistle (SASKR); compound 70 g/ha) of the same compound?
**A.** 70%
